From PMC5355877, “The development of novel LTA4H modulators to selectively target LTB4 generation” (Scientific Reports, 2017)
Entries after “also recorded” stand apart in the source; their conditions may differ. Like-named read-outs stand apart in the source and are kept apart here. Values belong to the compound of their own block, whether it stands above or below them.

Assays:
[1] = target: T1, LTA4H epoxide hydrolase activity (LTB4 generation) (Mus musculus, UniProt P24527); experiment: LTA4H epoxide hydrolase activity: LTB4 generation by A23187-treated murine bone marrow neutrophils (EIA); assay type: cell-based
T1 construct: endogenous in cells; host or cells: murine bone marrow neutrophils
T1 sequence (P24527 1-611): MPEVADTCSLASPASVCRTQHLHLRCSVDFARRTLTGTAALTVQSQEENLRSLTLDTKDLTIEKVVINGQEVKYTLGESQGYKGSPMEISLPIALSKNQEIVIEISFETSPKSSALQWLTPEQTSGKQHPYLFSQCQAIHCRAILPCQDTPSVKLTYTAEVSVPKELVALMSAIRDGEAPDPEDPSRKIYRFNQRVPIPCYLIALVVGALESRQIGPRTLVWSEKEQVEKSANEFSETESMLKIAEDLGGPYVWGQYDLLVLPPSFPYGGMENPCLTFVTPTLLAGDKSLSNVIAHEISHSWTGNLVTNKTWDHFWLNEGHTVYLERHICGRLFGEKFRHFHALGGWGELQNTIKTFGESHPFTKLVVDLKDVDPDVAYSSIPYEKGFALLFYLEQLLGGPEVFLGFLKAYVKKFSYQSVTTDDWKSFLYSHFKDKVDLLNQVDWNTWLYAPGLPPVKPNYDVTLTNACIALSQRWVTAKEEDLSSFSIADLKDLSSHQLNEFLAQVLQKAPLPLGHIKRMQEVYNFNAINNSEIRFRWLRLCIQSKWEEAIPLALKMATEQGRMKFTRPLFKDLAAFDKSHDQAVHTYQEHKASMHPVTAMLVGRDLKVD
Method: To isolate murine bone marrow neutrophils, the femur and the tibia from both hind legs were removed and freed of soft tissue attachments, and the extreme distal tip of each extremity cut off. HBSS containing 15 mM EDTA and 30 mM HEPES was forced through the bone with a syringe. After dispersing cell clumps and passage through a […] sieve (BD labware, New Jersey), red blood cells were lysed by resuspending pellets in ACK buffer (for 3 minutes at room temperature) before centrifugation (800 × g, 5 min) and washing with HBSS. The cell suspension was centrifuged (800 × g, 5 min, 4 °C) and resuspended in RPMI.
1% DMSO was used as a control. Cells were incubated for 20 minutes at 37 °C, and the reaction was terminated by centrifugation (600 × g, 5 min, 4 °C). Supernatants were removed and stored at −80 °C for subsequent LTB4 analysis. The concentration of LTB4 generated in the epoxide hydrolase activity assay was assayed using an EIA, according to manufacturer’s directions (R&D systems, Minneapolis, MN). Test compounds were assayed in a blinded manner by an investigator during determination of effect on LTA4H epoxide hydrolase activity.

[2] = target: T2, recombinant human LTA4H (aminopeptidase, PGP substrate) (Homo sapiens, UniProt P09960); experiment: LTA4H aminopeptidase activity: PGP degradation by recombinant human LTA4H; assay type: biochemical
T2 construct: purchased Cayman Chemicals
T2 sequence (P09960 1-611): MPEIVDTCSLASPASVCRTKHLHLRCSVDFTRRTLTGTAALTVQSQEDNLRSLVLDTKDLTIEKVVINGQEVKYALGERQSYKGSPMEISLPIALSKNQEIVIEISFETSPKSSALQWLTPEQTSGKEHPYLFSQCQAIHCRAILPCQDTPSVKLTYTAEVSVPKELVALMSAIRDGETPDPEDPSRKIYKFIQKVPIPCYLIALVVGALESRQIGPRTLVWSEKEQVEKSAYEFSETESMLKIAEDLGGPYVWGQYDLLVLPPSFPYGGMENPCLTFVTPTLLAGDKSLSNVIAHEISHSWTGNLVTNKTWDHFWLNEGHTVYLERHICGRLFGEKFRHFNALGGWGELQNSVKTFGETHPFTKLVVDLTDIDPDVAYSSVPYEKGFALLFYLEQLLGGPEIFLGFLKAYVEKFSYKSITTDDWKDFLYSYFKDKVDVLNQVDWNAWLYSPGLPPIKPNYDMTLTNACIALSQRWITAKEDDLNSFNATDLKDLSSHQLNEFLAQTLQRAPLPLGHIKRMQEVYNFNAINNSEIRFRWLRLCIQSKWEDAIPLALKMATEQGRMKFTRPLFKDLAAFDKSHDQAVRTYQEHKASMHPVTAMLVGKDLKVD
Method: (§1) For peptide quantification in serum, PGP and AcPGP were measured using a MDS Sciex API-4000 spectrometer (Applied Biosystems, Foster City, CA) equipped with a Shimadzu HPLC (Columbia, MD). For peptide quantification from degradation experiments, PGP and AcPGP were measured using a Thermo Accela Pump and Autosampler coupled to a Thermo TSQ Quantum Access. […] Peak area was measured, and PGP/AcPGP peptide concentrations were calculated using a relative standard curve method as previously described.
(§2) Mouse serum (diluted 1/10 in PBS) or recombinant human LTA4H (0.1 μg/ml; Cayman Chemicals, Michigan, USA) were incubated with 0.4 mM PGP at 37 °C in 5% CO2 for varying periods of time. Concentrations of PGP remaining were subsequently quantified by ESI-LC/MS/MS (as discussed above) by comparison with PGP standards. The percentage of peptide degraded was determined relative to control samples of 0.4 mM PGP alone. PGP degradation was also assessed by measurement of free proline released and its ensuing reaction with Ninhydrin (as discussed below). Test compounds were assayed in a blinded manner by an investigator during determination of the effect on LTA4H aminopeptidase activity.
To assess free proline liberated, aliquots from PGP degradation experiments were diluted 1 in 10 in PBS (to a final volume of 250 μl). Glacial acetic acid (250 μl) was then added, followed by 250 μl of ninhydrin solution (25 mg/ml in acetic acid/6 M phosphoric acid; heated at 70 °C to dissolve). The reaction mixture was heated at 100 °C for 60 minutes, allowed to cool to room temperature and the proline containing fraction extracted with 500 μl of toluene and optical density measured at 520 nm.

[3] = target: T3, LTA4H aminopeptidase activity (Ala-p-nitroanilide substrate) (Homo sapiens, UniProt P09960); experiment: LTA4H aminopeptidase activity versus Ala-p-nitroanilide substrate; assay type: biochemical; conditions: in our hands
T3 sequence (P09960 1-611): T2 sequence (P09960 1-611)

[4] = target: T3, LTA4H aminopeptidase activity (Ala-p-nitroanilide substrate); set-up: method as in PMID 21983441; conditions: read-out: AC50 for augmenting aminopeptidase activity; cited from earlier work
[5] = Human liver microsome stability; assay type: in vitro ADME; conditions: liver microsomes
Text: (§3) ARM1 (4-(4-benzylphenyl)-1,3-thiazole-2-amine), compound 11 (7-hydroxy-3-(4-hydroxyphenyl)-4H-chromen-4-one) and compound 13 (7-hydroxy-3-phenyl-4H-chromen-4-one) were all purchased from VitasMLab (Kowloon, Hong Kong). […] All other compounds were custom synthesized by Peakdale Molecular as described in Supplementary Information. ADMET (absorption, distribution, metabolism, and excretion – toxicity) studies were also outsourced to Peakdale Molecular.

[6] = Mouse plasma protein binding; assay type: in vitro ADME
Text: as §3

[7] = Mouse liver microsome stability; assay type: in vitro ADME; conditions: liver microsomes
Text: as §3

logD pH7.4 = assay type: physicochemical; conditions: pH 7.4; read-out: logDpH7.4
Text: as §3

[8] = Human plasma protein binding; assay type: in vitro ADME
Text: as §3

serum PGP = experiment: Absolute serum PGP concentrations after oral dosing of mice; assay type: in vivo; conditions: 10 mg/kg orally, naïve female BALB/c mice, blood 4 h after dosing
Method: (§4) Blood was obtained from mice 4 h after oral dosing and downstream analysis performed blinded by an independent researcher. […] The reaction was terminated by centrifugation (600 × g, 5 min, 4 °C). Supernatants were analyzed for LTB4 by EIA (see below). To assess inhibition of aminopeptidase activity, PGP degrading capacity of serum was assessed as detailed below. Furthermore, absolute concentrations of PGP in serum was determined as detailed below.
as §1

[9] = test system: serum aminopeptidase PGP-degrading activity; experiment: Serum aminopeptidase PGP-degrading activity after oral dosing of mice; assay type: in vivo; conditions: 10 mg/kg orally, naïve female BALB/c mice, blood 4 h after dosing
Method: as §4, §2

LTB4 generation = conditions: oral administration to naïve mice; cited from earlier work
[10] = LTB4 generation, murine neutrophils, Table 2, read-out: Epoxide Hydrolase IC50 ± SEM
[11] = PGP degradation, Table 2, read-out: Aminopeptidase IC50 ± SEM
[12] = LTB4 generation, murine neutrophils, Table 1, read-out: Epoxide Hydrolase IC50 ± SEM
[13] = PGP degradation, Table 3, read-out: Aminopeptidase IC50 ± SEM
[14] = LTB4 generation, murine neutrophils, Table 3, read-out: Epoxide Hydrolase IC50 ± SEM

SMILES: Oc1ccc(/C=C\c2cc(O)cc(O)c2)cc1 [Compound 2, cis-Resveratrol]
IC50 [1, 10]: 14.3 ± 2.1 µM

SMILES: COc1ccc(/C=C/c2cc(OC)cc(OC)c2)cc1 [Compound 3, trans-trismethoxy Resveratrol]
IC50 [2, 11]: 68.8 ± 9.9 µM | IC50 [1, 10]: 41.2 ± 5.5 µM

SMILES: CC(=O)Oc1ccc(/C=C/c2cc(OC(C)=O)cc(OC(C)=O)c2)cc1 [Compound 4, 5-[(1E)-2-[4-(acetyloxy)phenyl]ethenyl]-1,3-Benzenediol-1,3-diacetate]
IC50 [2, 11]: > 100 µM | IC50 [1]: 38.6 ± 5.9 µM

effect on aminopeptidase activity versus Ala-p-nitroanilide substrate [3]: did promote aminopeptidase activity | IC50 ([2]; PGP degradation, recombinant LTA4H, Table 1, read-out: Aminopeptidase IC50 ± SEM): 75.2 µM | IC50 [1, 12]: 48.9 µM
SMILES: COc1ccc(Cc2ccccc2)cc1 [Compound 4-MDM, 4-Methoxydiphenylmethane, reference compound]
effect on aminopeptidase activity with physiological substrate PGP ([2]; PGP substrate): modest inhibition; also recorded: failed to augment PGP degradation | AC50 [4]: 50 µM

SMILES: COc1cc(O)cc(/C=C/c2ccc(O)cc2)c1 [Compound 5, 3-[(1E)-2-(4-hydroxyphenyl)ethenyl]-5-methoxyphenol hydrate]
IC50 [2]: 99.5 ± 22.6 µM | IC50 [1, 10]: 3.9 ± 0.4 µM

IC50 [2, 11]: > 100 µM | IC50 [1, 10]: 6.4 ± 0.7 µM
SMILES: COc1cc(O)cc(CCc2ccc(O)cc2)c1 [Compound 6]

IC50 [2, 11]: > 100 µM | IC50 [1, 10]: 3.2 ± 0.7 µM
SMILES: CCOc1cc(O)cc(CCc2ccc(O)cc2)c1 [Compound 7]

IC50 [2, 11]: > 100 µM | IC50 [1, 10]: 1.7 ± 0.25 µM
SMILES: COc1cc(O)cc(CCc2cccc(O)c2)c1 [Compound 8]

IC50 [2, 13]: > 100 µM | IC50 [1, 14]: 34.2 ± 4.7 µM
SMILES: O=C(Cc1ccc(O)cc1)c1ccc(O)cc1O [Compound 10, 1-(2,4-Dihydroxyphenyl)-2-(4-hydroxyphenyl)ethanone]

microsomal CLint [5]: < 5 µL/min/mg | half-life ([5]; read-out: Human liver microsomes t1/2): > 2.32 h | fraction unbound [6]: 0.0723 | IC50 [2, 13]: 62.7 ± 13.3 µM | microsomal CLint [7]: 8.9 ± 0.7 µL/min/mg | half-life ([7]; read-out: Mouse liver microsomes t1/2): 1.3 ± 0.102 h | logD (logD pH7.4): 1.24 ± 0.06 | IC50 [1, 14]: 7.3 ± 0.8 µM | selectivity for hydrolase over peptidase inhibition ([1]; ratio of aminopeptidase to epoxide hydrolase IC50): > 8 fold | fraction unbound [8]: 0.0326
SMILES: O=c1c(-c2ccc(O)cc2)coc2c(O)c(O)ccc12 [Compound 12, 7,8,4′-trihydroxyisoflavone]

IC50 [2, 13]: > 100 µM | IC50 [1, 14]: 48.2 ± 14.6 µM
SMILES: O=c1c(-c2ccccc2)coc2cc(O)ccc12 [Compound 13, 7-hydroxy-3-phenyl-4H-chromen-4-one]

IC50 [2, 13]: 20.6 ± 3.3 µM | IC50 [1, 14]: 20.6 ± 2.4 µM
SMILES: O=c1c(-c2ccc(O)cc2)coc2c3c(ccc12)OCO3 [Compound 14]

IC50 [2, 13]: 69.2 ± 10.9 µM | IC50 [1, 14]: 1.2 ± 0.21 µM
SMILES: Cc1ccc2c(=O)c(-c3ccc(O)cc3)coc2c1O [Compound 15]

IC50 [1, 12]: 0.68 ± 0.01 µM
SMILES: O=C(O)CCCN1CCC[C@H]1COc1ccc(Oc2ccc(Cl)cc2)cc1 [DG-051, 4-[(2S)-2-{[4-(4-chlorophenoxy)phenoxy]methyl}-1-pyrrolidinyl]butanoic acid, reference compound]

SMILES: CC(=O)NC1CC2CCC(C1)N2Cc1ccc(Oc2nc3ncccc3s2)cc1 (stereo not drawn) [JNJ-40929837]
serum PGP (serum PGP): serum accumulation of PGP | IC50 [2]: 0.0094 ± 0.0013 µM | IC50 [1]: 0.009 ± 9e-05 µM | serum aminopeptidase PGP-degrading activity [9]: potently abrogates; also recorded: potently inhibited

SMILES: CN(CCCOc1ccc(Cc2ccccc2)cc1)CCC(=O)O.Cl [SC57461A, 3-[methyl[3-[4-(phenylmethyl)phenoxy]propyl]amino]propanoic acid HCl]
serum PGP (serum PGP): serum accumulation of PGP | IC50 [1, 12]: 0.11 ± 0.0235 µM | inhibition of LTB4 generation in ex vivo whole blood assay (LTB4 generation): potent inhibition | serum aminopeptidase PGP-degrading activity [9]: potently abrogates; also recorded: potently inhibited
